The target in one assay is T1, GABAA receptor α2β3γ2 (Homo sapiens, UniProt P18507+P47869).
T1 construct: expressed in transfected cells; host or cells: Xenopus laevis oocytes injected with cRNA
The assay can be described thus: Two-electrode voltage-clamp potentiation of GABA EC10 current in Xenopus oocytes, GABAA2. It is filed as cell-based. To be noted: percentage potentiation of GABA EC10 current divided by that of diazepam. How it is done: GABAA receptors were heterologously expressed in Xenopus oocytes by injecting cRNA corresponding to human α1, α2, α3, α5, β2, P3 and γ2 subunits of the GABAA receptor genes. The specific subunit combinations (subtypes) were as follows: α1β2γ2, α2β3γ2, α3β3γ2, and α5β3γ2. The EC10 of GABA is approximated for each cell. Stability of GABA-mediated (EC10) current is established. Modulatory effect of test compound is determined and compared across subtypes. […] Thus, the assay can characterize modulatory effects and determine subtype selectivity of test compounds on major subtypes of GABAA receptors.
Xenopus laevis frogs (Xenopus I, Kalamazoo, Mich.) were anesthetized using 0.15% tricaine. Surgically removed ovarian lobes were teased out in OR2 solution (82 NaCl, 2.5 KCl, 5 HEPES, 1.5 NaH2PO4, 1 MgCl2, 0.1 EDTA, in mM, pH 7.4). The oocytes were defolliculated by incubation in 25 mL OR2 containing 0.2% collagenase 1A (SIGMA) two times for about 60 minutes on a platform shaker and stored in Leibovitz's L-15 medium. Oocytes were injected the following day in 0.5× Leibovitz's L-15 medium containing […] gentamycin, 10 units/ml penicillin, and […] streptomycin.
Capped cRNAs from the linearized vectors containing human α1, β2 and γ2 subunits of the GABAA receptor genes were mixed in ratio of […]. Oocytes were injected with 25-50 nL of mixed RNA with an appx molar ratio for α1, β2, and γ2 as 1:1:10. Oocyte recordings were done 2-10 days after injection. The same methods apply to subtypes derived from α2β3γ2, α3β3γ2, and α5β3γ2, except for 1:1:1 ratio was used for α, β, and γ subunits.
All measurements were done in a medium containing ND-96 (96 NaCl, 2 KCl, 1.8 CaCl2.2H2O, 1 MgCl2.6H2O, 5 HEPES, in mM, pH 7.5). Two-electrode voltage-clamp recording was carried out using OpusXpress amplifier (Axon Instruments, Foster City, Calif.), which allows simultaneous recording from 8 oocytes. Oocytes were impaled with two electrodes of 1-2 MΩ tip resistance when filled with 3M KCl. Recordings were begun when membrane potential became stable at potentials negative to −50-−60 mV. Membrane potential was held at −60 mV. […] The concentration of GABA corresponded to the EC10 value calculated for each oocyte. The modulator pulses started 30 s before the GABA pulse so as to allow preincubation with the modulator. A set of 3 pulses with just GABA without modulator was given prior to the modulator-containing pulses to define the baseline GABA response. Two oocytes per each experiment were dedicated to observe the effect of diazepam on GABA response to ensure the presence of γ2 subunit in the GABAA pentameric complex, which imparts diazepam sensitivity to the complex.
Current amplitude (i) was measured from baseline to peak using Clampfit (Axon Inst., Foster City, Calif.). Potentiation was calculated as percent change from the baseline GABA current flux 100×(imod/icontrol)−1) where imod=current mediated by modulator+GABA and icontrol=current mediated by GABA alone. […] Similarly, a value of −50% potentiation means the presence of modulator caused a 50% decrease in the control current. Various other data shown here were fitted and plotted using GraphPad Prism (GraphPad Software, Inc. San Diego, Calif.). The percentage potentiation was converted to relative potentiation by dividing it with percentage potentiation value obtained from the same assay with diazepam as a control.

A further assay has as its target T2, GABAA receptor α1β2γ2 (Homo sapiens, UniProt P14867+P18507).
T2 construct: expressed in transfected cells; host or cells: Xenopus laevis oocytes injected with cRNA
The assay can be described thus: Two-electrode voltage-clamp potentiation of GABA EC10 current in Xenopus oocytes, GABAA1. It is filed as cell-based. The settings on record: percentage potentiation of GABA EC10 current divided by that of diazepam. The procedure, abridged:
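Human GABAA receptors expressed in Xenopus oocytes by cRNA injection (α:β:γ molar ratio ~1:1:10 for α1β2γ2, 1:1:1 for α2β3γ2), recorded 2-10 days later by two-electrode voltage clamp at −60 mV in ND-96, pH 7.5. Modulator preapplied 30 s before GABA at per-oocyte EC10. Peak-current percent potentiation over GABA alone, normalised to diazepam.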

The target of assay [1] is T3, GABAA2 receptors (α2, β3, γ2 receptor subunits transfected into Sf9 cells) (Homo sapiens, UniProt P18507+P47869).
T3 construct: host or cells: Sf9 cells (membranes)
T3 sequence (P47869 29-451): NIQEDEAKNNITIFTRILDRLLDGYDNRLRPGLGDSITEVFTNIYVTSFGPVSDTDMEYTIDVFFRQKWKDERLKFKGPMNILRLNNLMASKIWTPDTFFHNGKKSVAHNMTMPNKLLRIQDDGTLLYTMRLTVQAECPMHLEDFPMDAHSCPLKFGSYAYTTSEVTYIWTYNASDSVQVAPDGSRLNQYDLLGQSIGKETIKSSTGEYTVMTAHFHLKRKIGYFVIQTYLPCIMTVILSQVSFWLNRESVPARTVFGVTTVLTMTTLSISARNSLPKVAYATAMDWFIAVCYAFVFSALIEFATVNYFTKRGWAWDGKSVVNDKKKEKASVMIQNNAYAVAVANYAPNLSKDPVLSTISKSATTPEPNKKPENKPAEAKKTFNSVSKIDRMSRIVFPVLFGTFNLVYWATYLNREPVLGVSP
T3 sequence (P28472 26-473 partner): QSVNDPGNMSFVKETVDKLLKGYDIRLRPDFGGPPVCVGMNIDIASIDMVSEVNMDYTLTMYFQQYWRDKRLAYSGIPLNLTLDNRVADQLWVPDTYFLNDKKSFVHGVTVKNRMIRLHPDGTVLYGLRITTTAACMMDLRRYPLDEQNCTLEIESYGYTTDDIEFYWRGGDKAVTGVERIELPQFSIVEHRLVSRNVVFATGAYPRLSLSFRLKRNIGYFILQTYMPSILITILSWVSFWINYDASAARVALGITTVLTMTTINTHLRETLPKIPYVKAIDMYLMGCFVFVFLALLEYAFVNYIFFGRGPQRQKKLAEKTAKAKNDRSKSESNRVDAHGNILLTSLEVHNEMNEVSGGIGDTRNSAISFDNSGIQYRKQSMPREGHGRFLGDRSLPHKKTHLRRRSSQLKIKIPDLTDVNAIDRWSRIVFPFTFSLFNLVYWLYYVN
T3 sequence (P18507 40-475): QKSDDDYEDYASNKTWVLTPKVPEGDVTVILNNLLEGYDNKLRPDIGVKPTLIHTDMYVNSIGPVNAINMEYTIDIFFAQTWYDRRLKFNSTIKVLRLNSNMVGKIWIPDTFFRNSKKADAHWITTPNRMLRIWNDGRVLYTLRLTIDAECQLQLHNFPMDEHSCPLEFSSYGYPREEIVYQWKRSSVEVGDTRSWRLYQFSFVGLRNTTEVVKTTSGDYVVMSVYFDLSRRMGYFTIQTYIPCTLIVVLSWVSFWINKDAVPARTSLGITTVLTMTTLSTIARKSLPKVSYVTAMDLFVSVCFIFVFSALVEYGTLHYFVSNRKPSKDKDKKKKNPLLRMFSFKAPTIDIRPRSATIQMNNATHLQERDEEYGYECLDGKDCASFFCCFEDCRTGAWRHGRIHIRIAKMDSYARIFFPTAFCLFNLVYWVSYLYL
The assay can be described thus: GABAA2 Binding Method ([3H]-Flunitrazepam displacement). To be noted: [3H]-Flunitrazepam ~2 nM, α2β3γ2 Sf9 membranes, 1 hr at 4° C. In outline:
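Displacement of [3H]-flunitrazepam (~2 nM in assay) from recombinant human α2β3γ2 receptors in Sf9 membranes; 1 h incubation at 4 °C, harvest by filtration. Values reported as percent of control, IC50 and Ki.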

For orientation: Ki means a measure of affinity in units of concentration, obtained from inhibition or displacement. Low readings indicate higher affinity, high ones lower affinity.

T2 sequence (P14867 28-456): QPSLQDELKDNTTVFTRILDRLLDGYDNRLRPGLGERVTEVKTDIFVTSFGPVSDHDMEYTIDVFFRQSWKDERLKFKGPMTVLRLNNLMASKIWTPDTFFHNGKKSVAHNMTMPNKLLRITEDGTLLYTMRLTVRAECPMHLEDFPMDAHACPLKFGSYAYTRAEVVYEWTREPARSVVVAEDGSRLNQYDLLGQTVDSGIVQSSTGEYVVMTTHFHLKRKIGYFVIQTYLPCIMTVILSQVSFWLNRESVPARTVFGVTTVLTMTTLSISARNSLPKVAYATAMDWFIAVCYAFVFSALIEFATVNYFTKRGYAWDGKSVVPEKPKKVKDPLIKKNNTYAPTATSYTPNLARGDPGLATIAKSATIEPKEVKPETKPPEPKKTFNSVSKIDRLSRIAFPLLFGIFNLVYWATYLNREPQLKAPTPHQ
T2 sequence (P47870 25-512 partner limits assumed): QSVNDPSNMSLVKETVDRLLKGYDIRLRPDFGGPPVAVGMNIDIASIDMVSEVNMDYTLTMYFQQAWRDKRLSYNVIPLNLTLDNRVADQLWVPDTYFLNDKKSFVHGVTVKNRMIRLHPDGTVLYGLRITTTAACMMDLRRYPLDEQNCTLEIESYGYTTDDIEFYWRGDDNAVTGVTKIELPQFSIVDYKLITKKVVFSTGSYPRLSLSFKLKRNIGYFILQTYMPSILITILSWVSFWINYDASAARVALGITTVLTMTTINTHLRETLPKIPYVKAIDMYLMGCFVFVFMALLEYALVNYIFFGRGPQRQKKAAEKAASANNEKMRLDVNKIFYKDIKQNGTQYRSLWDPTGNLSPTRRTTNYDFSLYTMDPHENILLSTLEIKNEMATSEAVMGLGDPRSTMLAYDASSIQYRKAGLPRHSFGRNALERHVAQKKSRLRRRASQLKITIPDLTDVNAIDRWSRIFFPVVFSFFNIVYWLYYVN
T2 sequence (P18507 40-475): as the sequence (P18507 40-475) above
T1 sequence (P47869 29-451): as the sequence (P47869 29-451) above
T1 sequence (P28472 26-473 partner): as the sequence (P28472 26-473 partner) above
T1 sequence (P18507 40-475): as the sequence (P18507 40-475) above

With `CCCN1Cc2nc3c(-c4cccnc4F)cccc3c(N)c2C1=O` [Example 13, 9-Amino-5-(2-fluoropyridin-3-yl)-2-propyl-2,3-dihydropyrrolo[3,4-b]quinolin-1-one], on GABAA receptor α2β3γ2, the “Relative Potentiation for GABAA2” value is given as 0.37. For the same compound, the “Relative Potentiation for GABAA1” value on GABAA receptor α1β2γ2 is reported as 0.21. In assay [1], the Ki came out at 26.7 nM.
In the same order, the values of `CCN1Cc2nc3c(-c4ccc(OC)nc4OC)c(F)ccc3c(N)c2C1=O` [Example 26, 9-Amino-5-(2,6-dimethoxypyridin-3-yl)-2-ethyl-6-fluoro-2,3-dihydropyrrolo[3,4-b]quinolin-1-one] are 0.18, 0.062 and 8.96 nM.
`COc1ccccc1-c1cccc2c(N)c3c(nc12)CN(C1CCC1)C3=O` [Example 63, 9-Amino-2-cyclobutyl-5-(2-methoxyphenyl)-2,3-dihydropyrrolo[3,4-b]quinolin-1-one]: the “Relative Potentiation for GABAA2” value on GABAA receptor α2β3γ2 was 0.25. Further, the “Relative Potentiation for GABAA1” value at GABAA receptor α1β2γ2 was 0.038. The compound further came in with a Ki in assay [1] of 3.52 nM.
In the same order, the values of `COc1ccc(-c2c(F)ccc3c(N)c4c(nc23)CN(C2CCC2)C4=O)cc1OC` [9-Amino-2-cyclobutyl-5-(3,4-dimethoxyphenyl)-6-fluoro-2,3-dihydropyrrolo[3,4-b]quinolin-1-one] are 0.41, 0.083 and 1 nM.
In the same order, the values of `COc1cccc(F)c1-c1c(F)ccc2c(N)c3c(nc12)CN(C1CC1)C3=O` [Example 35, 9-Amino-2-cyclopropyl-6-fluoro-5-(2-fluoro-6-methoxyphenyl)-2,3-dihydropyrrolo[3,4-b]quinolin-1-one] are 0.24, −0.075 and 2.59 nM.
As to `CCN1Cc2nc3c(-c4ccc(OC)nc4OC)cccc3c(N)c2C1=O` [Example 27, 9-Amino-5-(2,6-dimethoxypyridin-3-yl)-2-ethyl-2,3-dihydropyrrolo[3,4-b]quinolin-1-one], the “Relative Potentiation for GABAA2” value at GABAA receptor α2β3γ2 is listed as 0.18. The affinity in assay [1] corresponds to a Ki of 50.1 nM.
For `CCCCN1Cc2nc3c(-c4ccc(OC)nc4OC)cccc3c(N)c2C1=O` [Example 43, 9-Amino-2-butyl-5-(2,6-dimethoxypyridin-3-yl)-2,3-dihydropyrrolo[3,4-b]quinolin-1-one], in that order: 0.37 and 45 nM.
For `CCCN1Cc2nc3c(-c4cccnc4)cccc3c(N)c2C1=O` [Example 40, 9-Amino-2-propyl-5-pyridin-3-yl-2,3-dihydropyrrolo[3,4-b]quinolin-1-one], in that order: 0.27 and 46.5 nM.
With `COc1ccc(-c2cccc3c(N)c4c(nc23)CN(C)C4=O)c(OC)n1` [9-Amino-5-(2,6-dimethoxypyridin-3-yl)-2-methyl-2,3-dihydropyrrolo[3,4-b]quinolin-1-one], on GABAA receptor α2β3γ2, the “Relative Potentiation for GABAA2” value is listed as 0.19. Also, the Ki in assay [1] was 290 nM.
With `COc1ccc(CN2Cc3nc4c(-c5cncc(OC)c5)cccc4c(N)c3C2=O)cc1` [9-amino-2-(4-methoxybenzyl)-5-(5-methoxypyridin-3-yl)-2,3-dihydro-1H-pyrrolo[3,4-b]quinolin-1-one], the “Relative Potentiation for GABAA1” value at GABAA receptor α1β2γ2 is listed as 0.22. In assay [1], this compound yielded a Ki of 6.09 nM.
In the same order, the values of `CCCCN1Cc2nc3c(-c4cc(C)ccc4OC)cccc3c(N)c2C1=O` [9-amino-2-butyl-5-(2-methoxy-5-methylphenyl)-2,3-dihydro-1H-pyrrolo[3,4-b]quinolin-1-one] are 0.56 and 21.3 nM.
In the same order, the values of `COc1ncccc1-c1cccc2c(N)c3c(nc12)CN(Cc1ccc2c(c1)OCO2)C3=O` [9-amino-2-(benzo[d][1,3]dioxol-5-ylmethyl)-5-(2-methoxypyridin-3-yl)-2,3-dihydro-1H-pyrrolo[3,4-b]quinolin-1-one] are 0.24 and 5.78 nM.
For `CCCN1Cc2nc3c(-c4cccc(C#N)c4)cccc3c(N)c2C1=O` [3-(9-amino-1-oxo-2-propyl-2,3-dihydro-1H-pyrrolo[3,4-b]quinolin-5-yl)benzonitrile], in that order: 0.54 and 21.2 nM.
In the case of `COc1cccc(C#N)c1-c1cccc2c(N)c3c(nc12)CN(C1CC1)C3=O` [Example 139, 2-(9-Amino-2-cyclopropyl-1-oxo-2,3-dihydro-1H-pyrrolo[3,4-b]quinolin-5-yl)-3-methoxybenzonitrile], at GABAA receptor α2β3γ2, the “Relative Potentiation for GABAA2” value worked out at 0.15. Besides, at GABAA receptor α1β2γ2, the “Relative Potentiation for GABAA1” value is listed as −0.078.
`CCCN1Cc2nc3c(-c4ccc(Cl)nc4C)cccc3c(N)c2C1=O` [9-amino-5-(6-chloro-2-methylpyridin-3-yl)-2-propyl-2,3-dihydro-1H-pyrrolo[3,4-b]quinolin-1-one]: the “Relative Potentiation for GABAA1” value at GABAA receptor α1β2γ2 is 1.1. In assay [1], this compound displayed a Ki of 23.1 nM.
Consider `CCCN1Cc2nc3c(-c4cc(F)cnc4Cl)cccc3c(N)c2C1=O` [9-amino-5-(2-chloro-5-fluoropyridin-3-yl)-2-propyl-2,3-dihydro-1H-pyrrolo[3,4-b]quinolin-1-one], for which the “Relative Potentiation for GABAA1” value at GABAA receptor α1β2γ2 is 0.38. In addition, in assay [1], the affinity, expressed as Ki, was 16.3 nM.
For `CCCN1Cc2nc3c(-c4ccncc4)cccc3c(N)c2C1=O` [9-amino-2-propyl-5-(pyridin-4-yl)-2,3-dihydro-1H-pyrrolo[3,4-b]quinolin-1-one], the “Relative Potentiation for GABAA1” value at GABAA receptor α1β2γ2 was 0.43. Further, in assay [1], the affinity corresponds to a Ki of 24.6 nM.
For `CCCCN1Cc2nc3c(-c4c(F)cccc4OC)cccc3c(N)c2C1=O` [9-amino-2-butyl-5-(2-fluoro-6-methoxyphenyl)-2,3-dihydro-1H-pyrrolo[3,4-b]quinolin-1-one], in that order: 0.25 and 4.62 nM.
For `CCCN1Cc2nc3c(-c4cncc(C#N)c4)cccc3c(N)c2C1=O` [5-(9-amino-1-oxo-2-propyl-2,3-dihydro-1H-pyrrolo[3,4-b]quinolin-5-yl)nicotinonitrile], in that order: 0.26 and 64.9 nM.
For `COc1ccc(CN2Cc3nc4c(-c5ccc(F)cc5OC)cccc4c(N)c3C2=O)cc1` [9-amino-5-(4-fluoro-2-methoxyphenyl)-2-(4-methoxybenzyl)-2,3-dihydro-1H-pyrrolo[3,4-b]quinolin-1-one], in that order: 0.22 and 31.2 nM.
With `CCCN1Cc2nc3c(-c4ccc(OC)cc4OC)c(F)ccc3c(N)c2C1=O` [9-amino-5-(2,4-dimethoxyphenyl)-6-fluoro-2-propyl-2,3-dihydro-1H-pyrrolo[3,4-b]quinolin-1-one], the “Relative Potentiation for GABAA1” value on GABAA receptor α1β2γ2 amounted to 0.39. The compound further came in with a Ki in assay [1] of 13.9 nM.
In the same order, the values of `CCCN1Cc2nc3c(-c4c(F)cc(OC)cc4F)cccc3c(N)c2C1=O` [9-amino-5-(2,6-difluoro-4-methoxyphenyl)-2-propyl-2,3-dihydro-1H-pyrrolo[3,4-b]quinolin-1-one] are 0.16 and 12.2 nM.

Values taken from patent publication US20080318943A1, “Compounds and Uses Thereof - 848” (ASTRAZENECA AB, priority 2007, published 2008).
